Measurements reported in US6676950B2, “Neurokinin receptor antagonists and methods of use thereof for inhibiting HIV infection” (The Children's Hospital of Philadelphia, priority 2001, dated 2004).

Experiments:
Type in all cases: cell-based, human
[1] = test system: CD4, CXCR4 and CD14 receptors; assay: Flow cytometry of CD4, CXCR4 and CD14 receptor expression on MDM; details: incubated overnight (24 h); direct immunofluorescence
Procedure: The cells were removed from the culture plate and then resuspended in 100 μl of phosphate-buffered saline (PBS). After incubation with 20 μl of either anti-CCR5-FITC or anti-CXCR4-FITC or anti-CD4-FITC or anti-CD14-FITC for 45 min at 4° C., the cells were washed twice with PBS and fixed with 1% paraformaldehyde in PBS. Fluorescein-conjugated control antibodies were isotype-matched IgG. Fluorescence was analyzed on an EPICS-Elite flow cytometer (Beckman-Coulter Electronics, Hialeah, Fla.).

[2] = test system: TNF-α; assay: LPS-stimulated TNF-α production in MDM by ELISA; details: 10^−9 to 10^−7M; LPS 1 ng/ml; 24 h
Procedure: In order to determine the role of CP-96,345 in the regulation of cytokine secretion, 7-day-cultured MDM were incubated with or without CP-96,345 (10^−9 to 10^−7M) and/or LPS (1 ng/ml) for 24 h. The culture supernatants were collected to determine TNF-A and IL-6 levels by ELISA. The ELISA kits were purchased from Endogen, Inc. (Woburn, Mass.).

[3] = test system: SP mRNA; assay: SP mRNA expression in MDM by real-time RT-PCR; details: 4 hours; percentage of untreated MDM
Procedure: FIG. 17. A graph showing the effect of CP-96,345 on SP mRNA expression in MDM. The MDM were incubated with (+) or without (−) the NK-1R antagonist at the indicated concentration for 4 hours. The SP mRNA levels were determined by a real-time RT-PCR. The SP mRNA levels in the CP-96,345 treated MDM are expressed as a percentage of that in untreated MDM which are defined as 100%.
The effect of CP-96,345 on SP mRNA expression in MDM was also determined. The MDM were incubated with (+) or without (−) the NK-1R antagonist at the indicated concentration for 4 hours. The SP mRNA levels were determined by a real-time RT-PCR.

Question: Which “CD4, CXCR4 and CD14 receptor expression on MDM” value [1] does the source give for COc1ccccc1CN[C@H]1C2CCN(CC2)[C@H]1C(c1ccccc1)c1ccccc1 [CP-96,345, [2S,3S)-cis-2-(diphenylmethyl)-N-[(2-methoxyphenyl)-methyl]-1-azabicyclo [[2.2.2]-octan-3-amine]] here?
Answer: only CCR5 expression was down-regulated

Question: What about the “LPS-stimulated TNF-A production in MDM” value [2] of the same molecule?
Answer: attenuated

Question: And the “SP mRNA expression in MDM (real-time RT-PCR)” value [3]?
Answer: significantly inhibited
